These results are taken from patent US20260295053A1, “COMPOUNDS FOR DEGRADATION AND INHIBITION OF KRAS (G12D) PROTEIN” (Shenzhen Ionova Life Science Co., Ltd., priority 2023, published 2026).

One test concerns the target T1, KRAS (G12D) (Homo sapiens, UniProt P01116, G12D).
T1 construct: in-cell western with KRAS G12D antibody after 24 h
In words: KRAS (G12D) cellular degradation assay in AsPC-1 cells. The test is classed as cell-based. The conditions noted are these: 24 hours, antibody fluorescence (Odyssey CLX), DC50 half-maximal degradation concentration. The method, boiled down: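 Read-outs were KRAS G12D immunofluorescence against β-actin after 24 h (DC50) and CellTiter Glo luminescence after 6 days (IC50). Compounds were titrated 1:3 from […] to 1.5 nM final on AsPC-1 cells at 37 °C, 5% CO2.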

The subject of the next test is AsPC-1 cells. Put plainly: AsPC-1 cell proliferation assay (CellTiter Glo). The test is classed as cell-based. Particulars: Homo sapiens, ASPC1, 144 h, 6 days. The protocol:
ASPC-1 and PK-59 cellular assays ASPC-1 (ATCC cat. CRL-1682) and PK-59 (Nanjing Cobioer, Cat. No. CBP61184) were used in KRAS cellular degradation, pERK inhibition and proliferation assays. The two cell lines were maintained following vendor's instructions. For monitoring KRAS (G12D) cellular degradation and pERK biomarker inhibition, cells were seeded into a 96-well plate with 22,000 and 16,000 cells/well for assays in ASPC-1 and PK-59, respectively. Cells were incubated at 37° C. with 5% CO2 and cell density was monitored until ^~90% confluency was reached. Compounds were serially diluted at a 1:3 ratio and dispensed into each well at final concentrations ranging from […] to 1.5 nM. After incubation for 24 hours, the culture media were removed and the cells were subjected to fixation, permeabilization and blocking (Intercept blocking buffer, Li-cor). For KRAS (G12D) degradation, the cells were treated with primary antibody (KRAS G12D antibody, Cell Signaling Technologies, Cat. No. CST14429) and for β-actin (β-actin mAb, Beyotime, Cat. No. AF-5001), and followed by secondary antibodies, Anti-rabbit IgG (H+L) (DyLight™ 800 4×PEG Conjugate) or IRDye® 680RD Goat anti-Mouse IgG. For pERK inhibition assay, cells were treated with primary antibodies for pERK (Phospho-p44/42 MAPK (Erk1/2) (Thr202/Tyr204) (D13.14.4E) XP® Rabbit mAb, Cell Signaling Technologies, Cat. No. CST-4370) and β-actin (β-actin mAb, Beyotime, Cat. No. AF-5001), and followed by secondary antibodies, Anti-rabbit IgG (H+L) (DyLight™ 800 4×PEG Conjugate) or IRDye® 680RD Goat anti-Mouse IgG. Fluorescence signals were read on Odyssey CLX instrument. For cell proliferation assays, cells were seeded into a 96-well plate at 3,500 and 800 cells/well for assays in ASPC-1 and PK-59, respectively. Cells were incubated at 37° C. with 5% CO2 for overnight. Compounds were serially diluted at a 1:3 ratio and dispensed into each well at final concentrations ranging from […] to 1.5 nM. After incubation for 6 days, cell viability reagent (CellTiter Glo, Promega, Cat. No. G7573) was added to each well and luminescence was recorded on Molecular Devices Spectramax iD3 instrument. IC50, half-maximal inhibitory concentration for pERK inhibition or cell proliferation, and DC50, half-maximal degradation concentration in KRAS (G12D) cellular degradation were determined by fitting the corresponding dose response curves using GraphPad Prism software.
Wherein “A” means the value <10 nM, “B” means 10 nM<the value <100 nM, “C” means 100 nM<the value <1000 nM, and “D” means the value >1000 nM, in which, the value means the value of DC50 or IC50. NT means not tested.
(In general: ATP-based viability assays read luminescence as a measure of living cells.)

T1 sequence (P01116 1-188 isoform P01116-2 G12D): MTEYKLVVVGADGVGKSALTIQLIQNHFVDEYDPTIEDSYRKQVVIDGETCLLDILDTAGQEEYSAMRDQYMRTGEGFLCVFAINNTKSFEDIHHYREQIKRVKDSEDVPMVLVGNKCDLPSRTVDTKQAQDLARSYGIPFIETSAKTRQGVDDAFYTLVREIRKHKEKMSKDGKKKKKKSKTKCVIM

A word on the DC50: it is the concentration at which degradation of the target reaches its halfway point. A higher DC50 goes with a less potent degrader. The term IC50 denotes the midpoint of a concentration-inhibition curve. High values mean weaker potency in that assay, low ones greater potency in that assay. In turn, `CCn1nccc1-c1ccc(CNC(=O)[C@@H]2C[C@@H](O)CN2C(=O)[C@H](C(C)C)n2cc(-c3ccc(COc4c(-c5c(C)c(F)cc6[nH]ncc56)c(C5CC5)cc5c(N6C[C@@H]7C[C@H]6CN7)nc(OC[C@H](C)OC)nc45)cc3)nn2)c2c1CC2` [Example 36, (2S,4R)-1-((2S)-2-(4-(4-(((4-((1S,4S)-2,5-diazabicyclo[2.2.1]heptan-2-yl)-6-cyclopropyl-7-(6-fluoro-5-methyl-1H-indazol-4-yl)-2-((S)-2-methoxypropoxy)quinazolin-8-yl)oxy)methyl)phenyl)-1H-1,2,3-triazol-1-yl)-3-methylbutanoyl)-N-((5-(1-ethyl-1H-pyrazol-5-yl)bicyclo[4.2.0]octa-1(6),2,4-trien-2-yl)methyl)-4-hydroxypyrrolidine-2-carboxamide] yielded a DC50 on KRAS (G12D) of 10 to 100 nM. In the test on AsPC-1 cells, the half-maximal inhibitory concentration (IC50) is 10 to 100 nM.

With `CCn1nccc1-c1ccc([C@H](CO)NC(=O)[C@@H]2C[C@@H](O)CN2C(=O)[C@H](C(C)C)n2cc(-c3ccc(COc4c(-c5c(C)c(F)cc6[nH]ncc56)c(C5CC5)cc5c(N6C[C@@H]7C[C@H]6CN7)nc(OC6CCN(S(C)(=O)=O)CC6)nc45)cc3)nn2)cc1` [Example 38, (2S,4R)-1-((2S)-2-(4-(4-(((4-((1S,4S)-2,5-diazabicyclo[2.2.1]heptan-2-yl)-6-cyclopropyl-7-(6-fluoro-5-methyl-1H-indazol-4-yl)-2-((1-(methylsulfonyl)piperidin-4-yl)oxy)quinazolin-8-yl)oxy)methyl)phenyl)-1H-1,2,3-triazol-1-yl)-3-methylbutanoyl)-N—((R)-1-(4-(1-ethyl-1H-pyrazol-5-yl)phenyl)-2-hydroxyethyl)-4-hydroxypyrrolidine-2-carboxamide], the DC50 at KRAS (G12D) is less than 10 nM. Besides, the IC50 in the test with AsPC-1 cells was less than 10 nM.

`CO[C@@H](C)COc1nc(N2C[C@@H]3C[C@H]2CN3)c2cc(C3CC3)c(-c3c(C)c(F)cc4[nH]ncc34)c(OCc3ccc(-c4cn([C@H](C(=O)N5C[C@H](O)C[C@H]5C(=O)N[C@H](C#Cc5ccc(F)cc5F)CO)C(C)C)nn4)cc3)c2n1` [Example 40, (2S,4R)-1-((2S)-2-(4-(4-(((4-((1S,4S)-2,5-diazabicyclo[2.2.1]heptan-2-yl)-6-cyclopropyl-7-(6-fluoro-5-methyl-1H-indazol-4-yl)-2-((S)-2-methoxypropoxy)quinazolin-8-yl)oxy)methyl)phenyl)-1H-1,2,3-triazol-1-yl)-3-methylbutanoyl)-N—((R)-4-(2,4-difluorophenyl)-1-hydroxybut-3-yn-2-yl)-4-hydroxypyrrolidine-2-carboxamide]: at KRAS (G12D), the DC50 was 10 to 100 nM. This molecule also gave an IC50 with AsPC-1 cells of 10 to 100 nM.

`CO[C@@H](C)COc1nc(N2C[C@@H]3C[C@H]2CN3)c2cc(C3CC3)c(-c3c(C)c(F)cc4[nH]ncc34)c(OCc3ccc(-c4cn([C@H](C(=O)N5C[C@H](O)C[C@H]5C(=O)N[C@H](C#Cc5scnc5C)CO)C(C)C)nn4)cc3)c2n1` [Example 41, (2S,4R)-1-((2S)-2-(4-(4-(((4-((1S,4S)-2,5-diazabicyclo[2.2.1]heptan-2-yl)-6-cyclopropyl-7-(6-fluoro-5-methyl-1H-indazol-4-yl)-2-((S)-2-methoxypropoxy)quinazolin-8-yl)oxy)methyl)phenyl)-1H-1,2,3-triazol-1-yl)-3-methylbutanoyl)-4-hydroxy-N—((R)-1-hydroxy-4-(4-methylthiazol-5-yl)but-3-yn-2-yl)pyrrolidine-2-carboxamide] displayed a DC50 on KRAS (G12D) of less than 10 nM. This molecule showed an IC50 in the test on AsPC-1 cells of less than 10 nM.

`CO[C@@H](C)COc1nc(N2C[C@@H]3C[C@H]2CN3)c2cc(C3CC3)c(-c3c(C)c(F)cc4[nH]ncc34)c(OCc3ccc(-c4cn([C@H](C(=O)N5C[C@H](O)C[C@H]5C(=O)N[C@H](C#Cc5c(F)cccc5F)CO)C(C)C)nn4)cc3)c2n1` [Example 42, (2S,4R)-1-((2S)-2-(4-(4-(((4-((1S,4S)-2,5-diazabicyclo[2.2.1]heptan-2-yl)-6-cyclopropyl-7-(6-fluoro-5-methyl-1H-indazol-4-yl)-2-((S)-2-methoxypropoxy)quinazolin-8-yl)oxy)methyl)phenyl)-1H-1,2,3-triazol-1-yl)-3-methylbutanoyl)-N—((R)-4-(2,6-difluorophenyl)-1-hydroxybut-3-yn-2-yl)-4-hydroxypyrrolidine-2-carboxamide] came in with a DC50 on KRAS (G12D) of 10 to 100 nM. Further, the 50% inhibitory concentration (IC50) in the test with AsPC-1 cells lay within 10 to 100 nM.

In turn, `CCn1nccc1-c1ccc([C@H](CO)NC(=O)[C@@H]2C[C@@H](O)CN2C(=O)[C@H](C(C)C)n2cc(-c3ccc(COc4c(-c5c(C)c(F)cc6[nH]ncc56)c(C5CC5)cc5c(N6C[C@@H]7C[C@H]6CN7)nc(OC6CCC7(CC6)COC7)nc45)cc3)nn2)cc1` [Example 43, (2S,4R)-1-((2S)-2-(4-(4-(((2-((2-oxaspiro[3.5]nonan-7-yl)oxy)-4-((1S,4S)-2,5-diazabicyclo[2.2.1]heptan-2-yl)-6-cyclopropyl-7-(6-fluoro-5-methyl-1H-indazol-4-yl)quinazolin-8-yl)oxy)methyl)phenyl)-1H-1,2,3-triazol-1-yl)-3-methylbutanoyl)-N—((R)-1-(4-(1-ethyl-1H-pyrazol-5-yl)phenyl)-2-hydroxyethyl)-4-hydroxypyrrolidine-2-carboxamide] yielded a DC50 at KRAS (G12D) of less than 10 nM. In the test on AsPC-1 cells, this molecule displayed an IC50 of less than 10 nM.

With `CCn1nccc1-c1ccc([C@H](CO)NC(=O)[C@@H]2C[C@@H](O)CN2C(=O)[C@H](C(C)C)n2cc(-c3ccc(COc4c(-c5c(C)c(F)cc6[nH]ncc56)c(C5CC5)cc5c(N6C[C@@H]7C[C@H]6CN7)nc(OC[C@H](C)OC)nc45)cc3C)nn2)cc1` [Example 44, (2S,4R)-1-((2S)-2-(4-(4-(((4-((1S,4S)-2,5-diazabicyclo[2.2.1]heptan-2-yl)-6-cyclopropyl-7-(6-fluoro-5-methyl-1H-indazol-4-yl)-2-((S)-2-methoxypropoxy)quinazolin-8-yl)oxy)methyl)-2-methylphenyl)-1H-1,2,3-triazol-1-yl)-3-methylbutanoyl)-N—((R)-1-(4-(1-ethyl-1H-pyrazol-5-yl)phenyl)-2-hydroxyethyl)-4-hydroxypyrrolidine-2-carboxamide], the 50% degradation concentration (DC50) on KRAS (G12D) was less than 10 nM. In the test on AsPC-1 cells, this molecule gave an IC50 of less than 10 nM.

Turning to `CCn1nccc1-c1ccc([C@H](CO)NC(=O)[C@@H]2C[C@@H](O)CN2C(=O)[C@H](C(C)C)n2cc(-c3ccc(COc4c(-c5c(C)c(F)cc6[nH]ncc56)c(C5CC5)cc5c(N6C[C@@H]7C[C@H]6CN7)nc(OC[C@H](C)OC)nc45)cc3OC)nn2)cc1` [Example 45, (2S,4R)-1-((2S)-2-(4-(4-(((4-((1S,4S)-2,5-diazabicyclo[2.2.1]heptan-2-yl)-6-cyclopropyl-7-(6-fluoro-5-methyl-1H-indazol-4-yl)-2-((S)-2-methoxypropoxy)quinazolin-8-yl)oxy)methyl)-2-methoxyphenyl)-1H-1,2,3-triazol-1-yl)-3-methylbutanoyl)-N—((R)-1-(4-(1-ethyl-1H-pyrazol-5-yl)phenyl)-2-hydroxyethyl)-4-hydroxypyrrolidine-2-carboxamide], the DC50 on KRAS (G12D) is 10 to 100 nM. Further, the IC50 in the test on AsPC-1 cells lay in the range of 10 to 100 nM.

On to `CCc1ncccc1C#C[C@H](CO)NC(=O)[C@@H]1C[C@@H](O)CN1C(=O)[C@H](C(C)C)n1cc(-c2ccc(COc3c(-c4c(C)c(F)cc5[nH]ncc45)c(C4CC4)cc4c(N5C[C@@H]6C[C@H]5CN6)nc(OC[C@H](C)OC)nc34)cc2)nn1` [Example 46, (2S,4R)-1-((2S)-2-(4-(4-(((4-((1S,4S)-2,5-diazabicyclo[2.2.1]heptan-2-yl)-6-cyclopropyl-7-(6-fluoro-5-methyl-1H-indazol-4-yl)-2-((S)-2-methoxypropoxy)quinazolin-8-yl)oxy)methyl)phenyl)-1H-1,2,3-triazol-1-yl)-3-methylbutanoyl)-N—((R)-4-(2-ethylpyridin-3-yl)-1-hydroxybut-3-yn-2-yl)-4-hydroxypyrrolidine-2-carboxamide], for which, at KRAS (G12D), the DC50 lay in the range of 10 to 100 nM. In the test with AsPC-1 cells, this molecule displayed an IC50 of less than 10 nM.
